The results in this text go back to ChEMBL document CHEMBL4725353, “Discovery of Pyrido[2,3-b]indole Derivatives with Gram-Negative Activity Targeting Both DNA Gyrase and Topoisomerase IV” (J Med Chem, 2020).

SMILES strings stand for the structures. Converted amounts (≈) assume the structure as drawn.

The test system of data set [1] is Acinetobacter baumannii. The data set is described as follows: Antibacterial activity against Acinetobacter baumannii ATCC 19606 assessed as reduction in microbial growth preincubated for 20 to 24 hrs followed by subculture in absence of compound and measured on day 4 CLSI based broth microdilution susceptibility method. The class given is functional. The following applies: time hrs 20-24.

For data set [2], the system named is Escherichia coli. Kind of data set: Antibacterial activity against Escherichia coli ATCC BAA-2340 assessed as reduction in microbial growth preincubated for 20 to 24 hrs followed by subculture in absence of compound and measured on day 4 CLSI based broth microdilution susceptibility method. The class given is functional. The following applies: time hrs 20-24. (In general: Dilution methods test growth across graded concentrations, often in twofold steps.)

The subject of data set [3] is Escherichia coli. The data set is described as follows: microbe, parasite or virus in culture. The following applies: ATCC 25922.
Description: Antibacterial activity against Escherichia coli ATCC 25922 assessed as reduction in microbial growth preincubated for 20 to 24 hrs followed by subculture in absence of compound and measured on day 4 CLSI based broth microdilution susceptibility method
Data set [4] is described as follows: Distribution coefficient between octanol and buffer, log D of the compound in pH 7.4 buffer by CAMDIS assay. Format: physicochemical.
Data set [5] has as its system Pseudomonas aeruginosa. Kind of data set: Antibacterial activity against Pseudomonas aeruginosa ATCC 27853 assessed as reduction in microbial growth preincubated for 20 to 24 hrs followed by subculture in absence of compound and measured on day 4 CLSI based broth microdilution susceptibility method. Format: functional. The conditions noted are these: time hrs 20-24.

Data set [6] concerns Pseudomonas aeruginosa. Kind of data set: Antibacterial activity against Pseudomonas aeruginosa PAO1 assessed as reduction in microbial growth preincubated for 20 to 24 hrs followed by subculture in absence of compound and measured on day 4 CLSI based broth microdilution susceptibility method. Format: functional. The following applies: time hrs 20-24.
For data set [7], the system named is Escherichia coli. The data set is described as follows: microbe, parasite or virus in culture. The conditions noted are these: ATCC 29213.
Description: Antibacterial activity against Escherichia coli ATCC 29213 assessed as reduction in microbial growth preincubated for 20 to 24 hrs followed by subculture in absence of compound and measured on day 4 CLSI based broth microdilution susceptibility method
Data set [8] relates to Escherichia coli. Kind of data set: Antibacterial activity against Escherichia coli ATCC 35218 assessed as reduction in microbial growth preincubated for 20 to 24 hrs followed by subculture in absence of compound and measured on day 4 CLSI based broth microdilution susceptibility method. Format: functional. The following applies: time hrs 20-24.
The test system of data set [9] is Klebsiella pneumoniae. The data set is described as follows: Antibacterial activity against Klebsiella pneumoniae ATCC BAA-2146 assessed as reduction in microbial growth preincubated for 20 to 24 hrs followed by subculture in absence of compound and measured on day 4 CLSI based broth microdilution susceptibility method. The conditions noted are these: time hrs 20-24. The class given is functional.

For data set [10], the system named is Acinetobacter baumannii. Kind of data set: Antibacterial activity against Acinetobacter baumannii ATCC BAA-747 assessed as reduction in microbial growth preincubated for 20 to 24 hrs followed by subculture in absence of compound and measured on day 4 CLSI based broth microdilution susceptibility method. The class given is functional. The conditions noted are these: time hrs 20-24.

Data set [11] has as its system Pseudomonas aeruginosa. Kind of data set: Antibacterial activity against Pseudomonas aeruginosa ATCC BAA-2113 assessed as reduction in microbial growth preincubated for 20 to 24 hrs followed by subculture in absence of compound and measured on day 4 CLSI based broth microdilution susceptibility method. Format: functional. The conditions noted are these: time hrs 20-24.

The test system of data set [12] is Klebsiella pneumoniae. Kind of data set: Antibacterial activity against Klebsiella pneumoniae ATCC 10031 assessed as reduction in microbial growth preincubated for 20 to 24 hrs followed by subculture in absence of compound and measured on day 4 CLSI based broth microdilution susceptibility method. Format: functional. The following applies: time hrs 20-24.
In data set [13] the test system is Klebsiella pneumoniae. The data set is described as follows: Antibacterial activity against Klebsiella pneumoniae ATCC 700603 assessed as reduction in microbial growth preincubated for 20 to 24 hrs followed by subculture in absence of compound and measured on day 4 CLSI based broth microdilution susceptibility method. The conditions noted are these: time hrs 20-24. Format: functional.

In data set [14] the test system is Acinetobacter baumannii. Kind of data set: Antibacterial activity against Acinetobacter baumannii ATCC 51432 assessed as reduction in microbial growth preincubated for 20 to 24 hrs followed by subculture in absence of compound and measured on day 4 CLSI based broth microdilution susceptibility method. Format: functional. The following applies: time hrs 20-24.

The nature of data set [15]: in vitro. The conditions noted are these: mouse, liver microsomes. (Liver microsomes are vesicles of endoplasmic reticulum, rich in cytochrome P450 enzymes.)
Description: Intrinsic clearance in mouse liver microsomes preincubated for 10 mins followed by NADPH regenerating system addition and measured up to 30 mins by LC/MS-MS analysis
Data set [16] is described as follows: physchem. The conditions noted are these: PBS, pH 6.5.
Description: Solubility of compound in PBS at pH 6.5 incubated for over night by HPLC-UV based lyophilization solubility assay
The nature of data set [17]: physchem.
Description: Ionization constant (acid), pKa of the compound by photometric titration assay

Consider `CCNc1cc(F)cc2c1[nH]c1ncc(-c3cnc4ccnn4c3)c(-n3ccc(C(F)(F)F)n3)c12`, for which the MIC in data set [1] was 0.38 µg/mL; in [2], 0.75 µg/mL; in data set [3], 0.25 µg/mL (≈ 0.52 µM); in data set [5], 1.5 µg/mL; in [6] it was 2 µg/mL; in data set [7] it was 0.31 µg/mL (≈ 0.645 µM). In addition, the MIC in data set [8] was determined as 0.75 µg/mL; in [9] it was 1.5 µg/mL; in data set [10], 0.75 µg/mL; in data set [11], 0.75 µg/mL; in data set [12] it was 0.38 µg/mL; in [13], 0.75 µg/mL. Further, the MIC in data set [14] is 1.5 µg/mL. Further, the log distribution coefficient (logD) in data set [4] was 3.54.

For `CCNc1cc(F)cc2c1[nH]c1ncc(-c3cncc(C(N)=O)c3)c(-n3ccc(C(F)(F)F)n3)c12`, the MIC in data set [1] was 0.76 µg/mL; in data set [2] it was 0.76 µg/mL; in data set [3], 0.5 µg/mL (≈ 1.03 µM); in [5], 0.76 µg/mL; in [6] it was 2 µg/mL; in [7] it was below 0.016 µg/mL. The MIC in [8] was 0.76 µg/mL; in [9], 3.02 µg/mL; in data set [10] it was 3.02 µg/mL; in data set [11] it was 0.76 µg/mL; in data set [12] it was 0.09 µg/mL; in [13], 0.76 µg/mL. Further, the MIC in [14] is 3.02 µg/mL. Also, the pH-dependent lipophilicity (logD) in data set [4] was determined as 3.25.

For `CCNc1cc(F)cc2c1[nH]c1ncc(-c3cncc(C#N)c3)c(-n3ccc(C(F)(F)F)n3)c12`, the MIC in data set [1] is 0.73 µg/mL; in data set [2], 2.91 µg/mL; in data set [3], 0.5 µg/mL (≈ 1.07 µM); in [5] it was 5.82 µg/mL; in data set [6], 2 µg/mL; in [7] it was below 0.016 µg/mL. Further, the MIC in [8] turned out to be 1.45 µg/mL; in data set [9] it was 5.82 µg/mL; in [10], 1.45 µg/mL; in data set [11], 1.45 µg/mL; in data set [12] it was 0.73 µg/mL; in data set [13], 1.45 µg/mL. Further, the MIC in data set [14] is above 23.3 µg/mL. Moreover, in [15], the CLint scaled at 0.5 h came to 61.8 mL/min/kg. This molecule also registered a log distribution coefficient (logD) in [4] of 3.63. In data set [16], this molecule showed a solubility below 0.3 µg/mL.

As for `CCNc1cc(F)cc2c1[nH]c1ncc(-c3cncnc3)c(-n3ccc(C(F)(F)F)n3)c12`, the MIC in data set [1] is 0.17 µg/mL; in data set [2], 1.38 µg/mL; in data set [3] it was 0.25 µg/mL (≈ 0.566 µM); in data set [5], 1.38 µg/mL; in data set [6], 2 µg/mL; in [7] it was below 0.016 µg/mL. For the same molecule, the MIC in [8] amounted to 0.34 µg/mL; in data set [9], 1.38 µg/mL; in data set [10], 0.69 µg/mL; in data set [11] it was 0.34 µg/mL; in data set [12] it was 0.09 µg/mL; in data set [13], 0.69 µg/mL. Besides, the MIC in [14] was found to be 1.38 µg/mL. The molecule also came in with an intrinsic metabolic clearance (CLint scaled) at 0.5 h in data set [15] of 76.1 mL/min/kg. The pH-dependent lipophilicity (logD) in data set [4] stood at 3.48. The same molecule displayed a solubility in [16] below 0.2 µg/mL.

As to `CCNc1cc(F)cc2c1[nH]c1ncc(-c3cncc(CO)c3)c(-n3ccc(C(F)(F)F)n3)c12`, the MIC in [1] is 73 µg/mL; in [2], 1.47 µg/mL; in data set [3], 0.5 µg/mL (≈ 1.06 µM); in [5], above 23.5 µg/mL; in data set [6], 4 µg/mL; in [7], below 0.016 µg/mL. Moreover, the MIC is 1.47 µg/mL in data set [8]; above 23.5 µg/mL in data set [9]; above 23.5 µg/mL in data set [10]; 1.47 µg/mL in data set [11]; 0.183 µg/mL in data set [12]; 1.47 µg/mL in [13]. The MIC in data set [14] was above 23.5 µg/mL. In data set [4], this molecule registered a logD of 3.56.

As for `CCNc1cc(F)cc2c1[nH]c1ncc(-c3cncc(N)c3)c(-n3ccc(C(F)(F)F)n3)c12`, the MIC in [1] was 1.42 µg/mL; in [2], 2.85 µg/mL; in data set [3], 0.25 µg/mL (≈ 0.549 µM); in [5], 2.85 µg/mL; in [6], 2 µg/mL; in [7], below 0.016 µg/mL. For the same molecule, the MIC in data set [8] was determined as 2.85 µg/mL; in data set [9], 5.7 µg/mL; in [10], 2.85 µg/mL; in data set [11], 1.42 µg/mL; in [12], 0.178 µg/mL; in data set [13] it was 1.42 µg/mL. Further, the MIC in [14] amounted to 5.7 µg/mL. The molecule further came in with a logD in [4] of 3.44. In data set [17], this molecule came in with a pKa of 4.84.

Broadly, the logD is lipophilicity at a set pH, counting ionised and neutral species. As a reminder, the CLint scaled is the rate of metabolic loss divided by the concentration. Usually solubility stands for how much of the substance goes into solution per volume. High values mean a readily soluble substance, low ones a poorly soluble substance. As usually defined, the pKa is the negative logarithm of the acid dissociation constant.
